According to patent publication US20240299321A1, “METHODS TO SENSITIZE CANCER CELLS AND STANDARDIZED SCREENING ASSAY FOR IMMUNOTHERAPY” (THE TRUSTEES OF INDIANA UNIVERSITY, priority 2020, published 2024):

Experiments:
[1] = tested on: NY-ESO-1-specific CD8+ T cells; assay: T cell effector function in MDA-MB-468 organoid co-culture; type: cell-based, human; details: vs control groups; FIG. 2D
Experimental: T cell effector function analysis: We measured cytokine and cytolytic granule production (IFNγ, GZMB and TNFα) of CD8+ T cells from mouse tumor samples and tumor organoid-T cell co-culture. Briefly, CD8+ T cells were placed into the 24-well plate at 1×10^6 cells/well, stimulated with 1 μM ionomycin and 50 ng ml-1 phorbol 12-myristate 13-acetate (PMA) (Sigma-Aldrich) for 4 h, in the presence of 5 μg ml-1 Brefeldin A (BFA), with the purpose to amplify the expression of intracellular cytokines61. The cells were stained with APC/Cy7-conjugated anti-CD8a (Biolegend) for 15 min and then fixed by 4% PFA. After washing, cells were stained with PerCP/Cy7-conjugated anti-GZMB, APC-conjugated anti-IFNγ and PE-conjugated anti-TNFα (Biolegend) for 15 min. In flow cytometric analyses, T cells stained with isotype control antibodies were used as negative controls for gating the cytokine or granule-producing cells. For T cells from tumor organoid-T cell co-culture, tumor organoids were first digested into single cells with TrypLE Express at 37° C. before APC/Cy7-conjugated anti-CD8a staining. In the IFNγ and TNFα secretion assay (Biolegend), T cells were stimulated with ionomycin and PMA without the presence of BFA. The media were collected for ELISA assay.

[2] = tested on: PDOs from breast cancer patients; assay: Patient-derived organoids co-cultured with autologous CD8+ T cells; type: cell-based, human; details: for T cell cytotoxicity: PDO2 and PDO7
Experimental: Breast tumor organoid culture: Single cells isolated from EO771-derived tumors in tumor-bearing C57BL/6 mice were suspended into cold mouse breast cancer culture medium containing 10% Matrigel (Corning) with a concentration of 2×10^5 cells ml^−1. The cells (2 ml) were seeded into each well of pre-warmed 6-well microplate with ultra-low attachment surface (Corning) and cultured at 37° C. with 5% CO2. The same volume of fresh culture medium was added every other day. After 7-day culture, tumor organoids were collected using cell strainers with pore size of 70 and 150 μm. For human tumor organoid culture, 2 ml of NY-ESO-1+ MDA-MB-468 cells with a concentration of 2×10^5 cells ml-1 were seeded into each well of the prewarmed 6-well microplate with ultra-low attachment surface. The cells were cultured for two days to generate tumor spheroids. The resulting spheroids were mixed with cancer associated fibroblasts (CAFs) with a ratio of 2:1 (tumor cells versus CAFs) and cultured in the human breast cancer organoid culture medium3 for 5 days. Finally, the MDA-MB-468 tumor organoids with diameter of 70˜150 μm were used for co-culture with NY-ESO-1-specific human CD8+ T cells (ASTARTE Biologics). Patient-derived organoids (PDOs) were cultured following the same procedures as mouse EO771 tumor organoids using human breast cancer organoid culture medium.
Cytotoxicity of CD8+ T cells in the co-culture with tumor organoids We generated mouse EO771 (Luc+OVA+) cell line that presents OVA257-264 antigen (from chicken ovalbumin) and human MDA-MB-468 (NY-ESO-1+) cell line that presents NY-ESO-1 antigen for use in the T cell-mediated cytotoxicity assay. OVA-specific CD8+ T cells were isolated from the spleen of OT-I mouse that contains transgenic inserts of Tcra-V2 and Tcrb-V5 genes. The transgenic T cell receptor can recognize the ovalbumin peptide SIINFEKL (OVA257-264; SEQ ID NO: 55). Anti-NY-ESO-1 human CD8^+ T cells (CELLERO™) were used to recognize the NY-ESO-1+ MDA-MB-468 cells. Autologous human CD8+ T cells were isolated from patient tumor tissues and amplified in the DMEM/F12 medium supplemented with 10% FBS, 2 mM Ultraglutamine I, 1% penicillin/streptomycin and 10 ng mL-1 of human IL2 for 7 days. The CD8+ T cells were stimulated by the T-activator CD3/CD28 Dynabeads (Gibco, 11452D for mouse and 11131D for human) for 48 h prior to use for cytotoxicity assay. Mouse and human tumor organoids with diameter between 70 and 150 μm were collected and mixed with corresponding CD8+ T cells in DMEM/F12 medium supplemented with 10% FBS, 2 mM Ultraglutamine I, 1% penicillin/streptomycin and 10 ng mL-1 IL2 (Biolegend, mouse: 575402; human: 589102) at a ratio of organoids versus T cells at 1:200 in the microplates with ultra-low attachment surface. The cells were co-cultured for 24 h and subject to further analyses, such as optical and fluorescence imaging, luciferase assay or flow cytometry.
There is an unmet clinical need to predict responsiveness to new cancer immunotherapy. Both syngeneic mouse models and humanized patient-derived xenograft (PDX) models are time-consuming and not cost-efficient. Here, we wanted to apply the standardized tumor organoid model in this study to predict the therapeutic responses to BML-210, CUDC-101 and GSK-LSD1. In this setting, autologous CD8+ T cells were isolated from patient tumor tissues and amplified for a week. Patient-derived organoids (PDOs) were generated from 10 patients with breast cancer (Table 2). The PDOs from each patient were characterized and compared with their originating tumors using Hematoxylin and eosin (H&E) staining and immunofluorescence imaging analysis. EpCAM and SMA were used as biomarkers to identify tumor epithelial cells and cancer-associated fibroblast cells, respectively, which are the main components of a breast tumor tissue. […] We were able to isolate reasonable numbers (>1×10^5) of autologous T cells from 8 out of 10 breast tumor tissues. […]

[3] = tested on: EO771 (Luc+OVA+) tumor organoids; assay: Toxicity on tumor organoids without T cells (WST-1 viability); type: cell-based, mouse; details: no T cells
Experimental: Tumor cell viability assay: For 2D tumor cell culture, tumor cells were seeded into 96 well plates at 2,000 cells per well and cultured for 72 h. For tumor organoids, tumor organoids with diameter between 70 and 150 μm were seeded at 50 organoids per well into 96-well microplates with ultra-low attachment surface (Corning). Cells or tumor organoids were treated with indicated compound at the final concentration of 1 μM. After 3-day culture, tumor organoids were dissociated into single cells using TrypLE Express (Corning) at 37° C. with a shaking velocity of 500 rpm on a thermomixer (Eppendorf) for 15 min. The 96-well microplates were added with 10 μl/well of Premix WST-1 reagent (TaKaRa) and incubated for 1 h. The microplates were read at absorbance of 450 nm on the Epoch microreader (BioTek). The toxicity of the epigenetic drugs was quantified using the premix WST-1 reagent according to the manufacturer's protocol.

[4] = PDO1, PDO3, PDO4, PDO5 and PDO8, 48 h pretreatment

Structure (SMILES) | GZMB, IFNγ and TNFα expression levels in the CD8+ T cells [1] | T cell-mediated cytotoxicity [2, 4] | T cell cytotoxicity [2] | T cell-mediated cytotoxicity ([2]; PDO6) | effect on the tumor organoids in the absence of T cells [3]
Nc1ccccc1NC(=O)CCCCCCC(=O)Nc1ccccc1 [BML-210] | much higher | significantly higher T cell-mediated cytotoxicity | only moderate increases (statistically not significant) | higher T cell-mediated cytotoxicity | no notable effect
C#Cc1cccc(Nc2ncnc3cc(OC)c(OCCCCCCC(=O)NO)cc23)c1 [CUDC-101] | much higher | significantly higher T cell-mediated cytotoxicity | only moderate increases (statistically not significant) | modest effect | no notable effect
c1ccc([C@@H]2C[C@H]2NC2CCNCC2)cc1 [GSK-LSD1] | much higher | significantly higher T cell-mediated cytotoxicity | only moderate increases (statistically not significant) | higher T cell-mediated cytotoxicity | no notable effect
